Experimental findings from patent publication US7241803B2, “Compounds for inhibition of HIV infection by blocking HIV entry” (New York Blood Center, priority 2002, dated 2007) are described below.

Test [1] deals with HIV-1IIIB. Nature of the test: time-of-addition assay. It is filed as cell-based. The settings on record: 2.5 μM added 8 hrs post-infection. Here is the method:
(§1) Assessment of anti-HIV-1 infectivity. […] Reactions were terminated by addition of 1N H2SO4.
MT-2 cells were incubated with HIV-1IIIB at 37° C. for 0, 1, 2, 3, 4, 6, and 8 hrs, respectively, before addition of the test compounds at 10 μg/ml. AZT (2.5 μM) was used as a control. After culture for another 2 hrs, the cells were washed to remove the free virus and compounds. The supernatants were collected on day 4 post-infection for measurement of p24 production.

For test [2], the system named is HIV-1IIIB. The experiment in a line: inhibition of HIV-1IIIB replication (p24 production) in MT-2 cells. It is filed as cell-based. The settings on record: concentration up to 80 μg/ml.
Text: as §1

Test [3] has as its system HIV-1NL4-3 pseudotyped viruses expressing HIV-1SF162 (R5) Env with U87-T4-CCR5 cells. Nature of the test: virus-cell fusion, luciferase assay. It counts as cell-based. The settings on record: HIV-1SF162 (R5) Env pseudotyped virus. The procedure:
Inhibition of virus-cell fusion. Inhibition of fusion of HIV-1NL4-3 pseudotyped viruses expressing envelope glycoprotein of the HIV-1HXB2 (X4) and HIV-1SF162 (R5) strains with U87-T4-CXCR4 and U87-T4-CCR5 cells, respectively, was measured as previously described (15). Briefly, 100 μl of U87-T4-CXCR4 and U87-T4-CCR5 cells, respectively, at 1×10^5 cells/ml were added to the wells of a 96-well tissue culture plate and cultured at 37° C. overnight. Fifty μl of a test compound at graded concentrations was mixed with 50 μl of the HIV-1NL4-3-luc viruses pseudotyped with the HIV-1HXB2 and HIV-1SF162 Env, prepared as described previously (15), at a final p24 concentration of 0.5 ng/ml in the presence of Polybrene (10 μg/ml). After incubation at 37° C. for 30 min, the mixtures were added to the cells and incubated at 37° C. overnight. The supernatants were removed and fresh culture medium was added. After incubation at 37° C. for 3 days, the cells were washed twice with PBS and lysed with the lysing reagent included in a luciferase assay kit (Promega, Corp., Madison, Wis.). The cell lysates were transferred to a 96-well flat-bottom luminometer plate (Costar, Corning Inc., Corning, N.Y.) and luciferase substrate (Promega) was added. The luciferase activity was measured immediately on a luminometer (Ultra 384, Tecan). The % inhibition and IC50 values were calculated as described above.

The test system of test [4] is MT-2 & H9/HIV-1IIIB (clade B, X4). The experiment in a line: cell-cell fusion, dye transfer assay. It counts as cell-based. Particulars: H9/HIV-1IIIB with MT-2 cells. Here is the method: Inhibition of cell-cell fusion. A dye transfer assay was used for detection of HIV-1 mediated cell fusion as previously described (21, 24, 34). H9/HIV-1IIIB cells were labeled with a fluorescent reagent, Calcein-AM (Molecular Probes, Inc., Eugene, Oreg.) and then incubated with MT-2 cells (ratio=1:5) in 96-well plates at 37° C. for 2 hrs in the presence or absence of compounds tested. The fused and unfused Cacein-labeled HIV-1-infected cells were counted under an inverted fluorescence microscope (Zeiss, Germany) with an eyepiece micrometer disc. The percentage of inhibition of cell fusion and the IC50 values were calculated as previously described (21).

Test [5] has as its target gp41 six-helix bundle formed by N36 and C34 (Human immunodeficiency virus type 1 group M subtype B, UniProt P04578). Particulars: for inhibitory activity on gp41 six-helix bundle formation (sandwich ELISA): graded concentrations, up to 80 μg/ml, compound preincubated with N36; for inhibition of six-helix bundle formation between N36 and C34 (screening ELISA): single dose 25 μg/ml. Here is the method:
ELISA for screening for compounds that inhibit the gp41 six-helix bundle formation. A sandwich ELISA as previously described (23) was used to screen for compounds that inhibit the gp41 six-helix bundle formation. Briefly, peptide N36 (2 μM) was pre-incubated with a test compound at the indicated concentrations at 37° C. for 30 min, followed by addition of C34 (2 μM). In the control experiments, N36 was pre-incubated with C34 at 37° C. for 30 min, followed by addition of the test compound. After incubation at 37° C. for 30 min, the mixture was added to wells of a 96-well polystyrene plate (Costar, Corning Inc., Corning, N.Y.) which were precoated with IgG (2 μg/ml) purified from rabbit antisera directed against the N36/C34 mixture. […] Absorbance at 450 nm was measured using an ELISA reader (Ultra 384, Tecan, Research Triangle Park, N.C.). The percent inhibition by the compounds was calculated as previously described (18) and the concentration for 50% inhibition (IC50) was calculated using the software designated Calcusyn (7), kindly provided by Dr. T. C. Chou (Sloan-Kettering Cancer Center, New York, N.Y.).
For orientation: In an ELISA, binding on a coated surface is turned into a signal by an enzyme label.

Test [6] relates to H9/HIV-1IIIB cells cocultured with MT-2 cells. Nature of the test: syncytium-formation assay for screening HIV-1 fusion inhibitors. It counts as cell-based. The settings on record: single dose 25 μg/ml. The text has this:
Syncytium-formation assay for screening HIV-1 fusion inhibitors. […] HIV-1 induced syncytium formation was observed under an inverted microscope and scored as “−” (no syncytium was observed), “±” (about 50% syncytia were inhibited), and “+” (no syncytium formation was inhibited). The compounds scored with “−” and “±” were selected for further screening by ELISA for inhibitors against the gp41 six-helix bundle formation.

The target of the next test is T1, gp120-CD4 binding (Human immunodeficiency virus type 1 group M subtype B, UniProt P03375).
T1 construct: purchased Immunodiagnostics, Woburn, Mass; (gp120); Genentech Inc., South San Francisco, Calif; (sCD4)
More on the design: species or system HIV-1. Particulars: 10 μg/ml. Here is the method:
Inhibition of gp120 binding to CD4. Wells of polystyrene plates was coated with 100 μl of sheep anti-gp120 antibody D7324 (Cliniqa, Fallbrook, Calif.) at 2 μg/ml in carbonate buffer (pH 9.6) at 4° C. overnight and blocked with 1% dry fat-free milk in PBS at 37° C. for 1 h. One hundred microliters of recombinant gp120 molecule (Immunodiagnostics, Woburn, Mass.) at 0.5 μg/ml in PBS was added and incubated at 37° C. for 1 h, followed by three washes with PBS-T. Soluble CD4 (sCD4) at 0.25 μg/ml was added in the presence of a compound (25 μM) and incubated at 37° C. for 1 h. After three washes, rabbit anti-sCD4 IgG (0.25 μg/ml in PBS, 100 μl/well) was added and incubated at 37° C. for 1 h. Binding of rabbit anti-sCD4 IgG was determined by sequential addition of biotinylated goat-anti-rabbit IgG, SA-HRP, and TMB. After the reactions were terminated, absorbance at 450 nm was recorded in an ELISA reader (Tecan).
HIV-1 envelope glycoprotein gp120 was captured by the anti-gp120 antibody coated onto wells of polystyrene plates. […] After extensive washes, CD4 molecule bound to gp120 was quantitated by ELISA using anti-CD4 antibody.

The target in another test is T2, CXCR4 (Homo sapiens, UniProt P61073).
T2 construct: expressed in transfected cells; host or cells: U373-MAGI-CXCR4CEM cells
Nature of the test: inhibition of anti-CXCR4 antibody 12G5 binding to CXCR4-expressing cells, cell-based ELISA. The settings on record: 25 μM. Here is the method: Inhibition of anti-CXCR4 antibody binding to CXCR4-expressing cells. The inhibition of the binding of anti-CXCR4 antibody to CXCR4-expressing cells was determined using a cell-based ELISA as described previously (52). Briefly, U373-MAGI-CXCR4CEM cells (1×10^5/well) which express CXCR4 molecules were cultured in a 96-well plate at 37° C. overnight. The cells were fixed with 5% formaldehyde at room temperature for 15 min and washed with PBS-T. The cells were incubated with anti-CXCR4 mAb 12G5 at 37° C. for 1 h in the presence or absence of compounds tested. Isotype IgG2a was used as a control.

Chain of gp41 six-helix bundle formed by N36 and C34 (P04578 546-581): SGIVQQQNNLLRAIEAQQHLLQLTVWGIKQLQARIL
T2 sequence (P61073 whole entry): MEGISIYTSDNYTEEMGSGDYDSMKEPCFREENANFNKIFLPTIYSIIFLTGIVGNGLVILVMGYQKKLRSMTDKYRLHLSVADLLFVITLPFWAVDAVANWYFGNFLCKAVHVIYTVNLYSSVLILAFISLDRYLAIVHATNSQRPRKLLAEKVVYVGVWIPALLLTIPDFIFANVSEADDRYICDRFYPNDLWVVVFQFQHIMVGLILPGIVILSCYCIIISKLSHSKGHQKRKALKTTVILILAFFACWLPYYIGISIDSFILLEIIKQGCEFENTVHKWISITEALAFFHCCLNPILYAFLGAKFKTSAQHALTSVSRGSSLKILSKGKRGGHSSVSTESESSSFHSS

For the compound `Cc1cn([C@H]2C[C@H](N=[N+]=[N-])[C@@H](CO)O2)c(=O)[nH]c1=O` [AZT, reference compound], the “inhibition of HIV-1 replication, time of addition” value in the test on HIV-1IIIB [1] is reported as “still effective”.

For the compound `Cc1ccc(C)n1-c1cccc(O)c1` [NB-177, reference compound], the “inhibitory activity on HIV-1IIIB replication” value in the test with HIV-1IIIB [2] is “no inhibitory activity”. The “inhibitory activity on virus-cell fusion” value in test [3] was “no inhibitory activity”. Also, the “inhibitory activity on cell-cell fusion” value in test [4] is given as “no inhibitory activity”. Further, in test [5], the “inhibitory activity on gp41 six-helix bundle formation (sandwich ELISA)” value is on record as “no inhibitory activity”; the “inhibition of six-helix bundle formation between N36 and C34 (screening ELISA)” value is “no inhibitory activity”. For the same compound, the “inhibition of HIV-1 mediated syncytium formation” value in test [6] was “no inhibitory activity”.

On to `Clc1ccc(-n2cccc2)cc1` [NB-178, reference compound], for which the “inhibitory activity on HIV-1IIIB replication” value with HIV-1IIIB [2] is “no inhibitory activity”. For the same compound, the “inhibitory activity on virus-cell fusion” value in test [3] is “no inhibitory activity”. For the same compound, the “inhibitory activity on cell-cell fusion” value in test [4] was “no inhibitory activity”. In test [5], the “inhibitory activity on gp41 six-helix bundle formation (sandwich ELISA)” value is on record as “no inhibitory activity”; the “inhibition of six-helix bundle formation between N36 and C34 (screening ELISA)” value is “no inhibitory activity”. The “inhibition of HIV-1 mediated syncytium formation” value in test [6] was “no inhibitory activity”.

As to `CN1C(=O)[C@@H](c2cc(Cl)c(O)c(Cl)c2)NC(=O)[C@@H]2NC(=O)[C@@H](c3cc(Cl)c(O)c(Cl)c3)NC(=O)[C@H](NC(=O)C(=O)c3cc(Cl)c(O)c(Cl)c3)Cc3c[nH]c4c(cccc34)-c3cc2cc(c3O)Oc2ccc(cc2)C[C@H]1C(=O)N[C@@H](C(=O)O)c1ccc(O)cc1` [chloropeptin, reference compound], the “inhibition of gp120-CD4 binding” value at gp120-CD4 binding is given as “markedly inhibited”.

Consider “[Tyr-5,12, Lys-7]polyphemusin II [Example T22, reference compound]”, for which the “inhibition of 12G5 binding to U373-MAGI-CXCR4CEM cells” value at CXCR4 is listed as “significantly inhibited”.
